#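 96-well plates; 48 h exposure; 5 concentrations. Endpoints by linear interpolation between flanking doses. Not reached: highest tested concentration assigned. GI50: concentration for 50% inhibition of growth. TGI denotes the concentration required for complete inhibition of growth.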
# System: SK-MEL-28 melanoma
# Assay: inhibition of tumour cell growth, NCI panel, 48 h
Structure (SMILES),TGI [µM],GI50 [µM]
Cc1cn(C2CC(N(O)Cc3ccccc3)C(CO)O2)c(=O)[nH]c1=O (centres undefined),> 100,
O=c1[nH]cc(COCC(F)(F)C(F)(F)C(F)(F)C(F)F)c(=O)[nH]1,> 100,
NC1CCCC[C@H]1N.N[C@@H]1CCCC[C@@H]1N.O=C(P(=O)([O-])[O-])P(=O)([O-])[O-].[Pt+4].[Pt+4],> 100,> 100
CC1=C(C(=O)Nc2c(C)cccc2C)C(c2ccccc2Cl)C(C(=O)Nc2c(C)cccc2C)=C(C)N1,> 100,
N#CC(NNC(=O)Cc1ccccc1)c1ccccc1O (centres undefined),> 100,

# System: SK-MEL-5 melanoma
# Assay: inhibition of tumour cell growth, NCI panel, 48 h
Structure (SMILES),TGI [µM],GI50 [µM]
Cc1cn(C2CC(N(O)Cc3ccccc3)C(CO)O2)c(=O)[nH]c1=O (centres undefined),> 100,
O=c1[nH]cc(COCC(F)(F)C(F)(F)C(F)(F)C(F)F)c(=O)[nH]1,> 100,
NC1CCCC[C@H]1N.N[C@@H]1CCCC[C@@H]1N.O=C(P(=O)([O-])[O-])P(=O)([O-])[O-].[Pt+4].[Pt+4],> 100,> 100
CC1=C(C(=O)Nc2c(C)cccc2C)C(c2ccccc2Cl)C(C(=O)Nc2c(C)cccc2C)=C(C)N1,> 100,
N#CC(NNC(=O)Cc1ccccc1)c1ccccc1O (centres undefined),> 72.2,
COc1c(C)c2c(c(C)c1Cl)Oc1c(C=O)c(O)c(Cl)c(C)c1C(=O)O2,> 100,

# System: SK-OV-3 ovarian
# Assay: inhibition of tumour cell growth, NCI panel, 48 h
Structure (SMILES),TGI [µM],GI50 [µM]
Cc1cn(C2CC(N(O)Cc3ccccc3)C(CO)O2)c(=O)[nH]c1=O (centres undefined),> 100,
O=c1[nH]cc(COCC(F)(F)C(F)(F)C(F)(F)C(F)F)c(=O)[nH]1,> 100,
NC1CCCC[C@H]1N.N[C@@H]1CCCC[C@@H]1N.O=C(P(=O)([O-])[O-])P(=O)([O-])[O-].[Pt+4].[Pt+4],> 100,> 100
CC1=C(C(=O)Nc2c(C)cccc2C)C(c2ccccc2Cl)C(C(=O)Nc2c(C)cccc2C)=C(C)N1,> 100,
N#CC(NNC(=O)Cc1ccccc1)c1ccccc1O (centres undefined),> 85.4,
COc1c(C)c2c(c(C)c1Cl)Oc1c(C=O)c(O)c(Cl)c(C)c1C(=O)O2,> 100,

# System: SN12C renal
# Assay: inhibition of tumour cell growth, NCI panel, 48 h
Structure (SMILES),TGI [µM],GI50 [µM]
Cc1cn(C2CC(N(O)Cc3ccccc3)C(CO)O2)c(=O)[nH]c1=O (centres undefined),> 100,
O=c1[nH]cc(COCC(F)(F)C(F)(F)C(F)(F)C(F)F)c(=O)[nH]1,> 100,
NC1CCCC[C@H]1N.N[C@@H]1CCCC[C@@H]1N.O=C(P(=O)([O-])[O-])P(=O)([O-])[O-].[Pt+4].[Pt+4],> 100,> 100
CC1=C(C(=O)Nc2c(C)cccc2C)C(c2ccccc2Cl)C(C(=O)Nc2c(C)cccc2C)=C(C)N1,> 100,
N#CC(NNC(=O)Cc1ccccc1)c1ccccc1O (centres undefined),> 100,
COc1c(C)c2c(c(C)c1Cl)Oc1c(C=O)c(O)c(Cl)c(C)c1C(=O)O2,> 100,

# System: SNB-19 CNS
# Assay: inhibition of tumour cell growth, NCI panel, 48 h
Structure (SMILES),TGI [µM],GI50 [µM]
Cc1cn(C2CC(N(O)Cc3ccccc3)C(CO)O2)c(=O)[nH]c1=O (centres undefined),> 100,
O=c1[nH]cc(COCC(F)(F)C(F)(F)C(F)(F)C(F)F)c(=O)[nH]1,> 100,
NC1CCCC[C@H]1N.N[C@@H]1CCCC[C@@H]1N.O=C(P(=O)([O-])[O-])P(=O)([O-])[O-].[Pt+4].[Pt+4],> 100,> 100
CC1=C(C(=O)Nc2c(C)cccc2C)C(c2ccccc2Cl)C(C(=O)Nc2c(C)cccc2C)=C(C)N1,> 100,
N#CC(NNC(=O)Cc1ccccc1)c1ccccc1O (centres undefined),> 80.8,

# System: SNB-75 CNS
# Assay: inhibition of tumour cell growth, NCI panel, 48 h
Structure (SMILES),TGI [µM],GI50 [µM]
Cc1cn(C2CC(N(O)Cc3ccccc3)C(CO)O2)c(=O)[nH]c1=O (centres undefined),> 100,
O=c1[nH]cc(COCC(F)(F)C(F)(F)C(F)(F)C(F)F)c(=O)[nH]1,> 100,
NC1CCCC[C@H]1N.N[C@@H]1CCCC[C@@H]1N.O=C(P(=O)([O-])[O-])P(=O)([O-])[O-].[Pt+4].[Pt+4],> 100,> 100
CC1=C(C(=O)Nc2c(C)cccc2C)C(c2ccccc2Cl)C(C(=O)Nc2c(C)cccc2C)=C(C)N1,> 100,
N#CC(NNC(=O)Cc1ccccc1)c1ccccc1O (centres undefined),85.6,
COc1c(C)c2c(c(C)c1Cl)Oc1c(C=O)c(O)c(Cl)c(C)c1C(=O)O2,79.7,

# System: SNB-78 CNS
# Assay: inhibition of tumour cell growth, NCI panel, 48 h
Structure (SMILES),TGI [µM],GI50 [µM]
Cc1cn(C2CC(N(O)Cc3ccccc3)C(CO)O2)c(=O)[nH]c1=O (centres undefined),> 100,
NC1CCCC[C@H]1N.N[C@@H]1CCCC[C@@H]1N.O=C(P(=O)([O-])[O-])P(=O)([O-])[O-].[Pt+4].[Pt+4],> 100,> 100
CC1=C(C(=O)Nc2c(C)cccc2C)C(c2ccccc2Cl)C(C(=O)Nc2c(C)cccc2C)=C(C)N1,> 100,
N#CC(NNC(=O)Cc1ccccc1)c1ccccc1O (centres undefined),> 100,
COc1c(C)c2c(c(C)c1Cl)Oc1c(C=O)c(O)c(Cl)c(C)c1C(=O)O2,54.7,

# System: SR leukemia
# Assay: inhibition of tumour cell growth, NCI panel, 48 h
row,Structure (SMILES),TGI [µM]
1,Cc1cn(C2CC(N(O)Cc3ccccc3)C(CO)O2)c(=O)[nH]c1=O (centres undefined),> 100
2,O=c1[nH]cc(COCC(F)(F)C(F)(F)C(F)(F)C(F)F)c(=O)[nH]1,> 100
3,N#CC(NNC(=O)Cc1ccccc1)c1ccccc1O (centres undefined),70.7
4,COc1c(C)c2c(c(C)c1Cl)Oc1c(C=O)c(O)c(Cl)c(C)c1C(=O)O2,89.4

# System: SW-620 colon
# Assay: inhibition of tumour cell growth, NCI panel, 48 h
Structure (SMILES),TGI [µM],GI50 [µM]
Cc1cn(C2CC(N(O)Cc3ccccc3)C(CO)O2)c(=O)[nH]c1=O (centres undefined),> 100,
O=c1[nH]cc(COCC(F)(F)C(F)(F)C(F)(F)C(F)F)c(=O)[nH]1,> 100,
NC1CCCC[C@H]1N.N[C@@H]1CCCC[C@@H]1N.O=C(P(=O)([O-])[O-])P(=O)([O-])[O-].[Pt+4].[Pt+4],> 100,38.8
CC1=C(C(=O)Nc2c(C)cccc2C)C(c2ccccc2Cl)C(C(=O)Nc2c(C)cccc2C)=C(C)N1,> 100,
N#CC(NNC(=O)Cc1ccccc1)c1ccccc1O (centres undefined),> 100,
COc1c(C)c2c(c(C)c1Cl)Oc1c(C=O)c(O)c(Cl)c(C)c1C(=O)O2,> 100,

# System: T-47D breast
# Assay: inhibition of tumour cell growth, NCI panel, 48 h
row,Structure (SMILES),TGI [µM]
1,N#CC(NNC(=O)Cc1ccccc1)c1ccccc1O (centres undefined),> 65.3

# System: TK-10 renal
# Assay: inhibition of tumour cell growth, NCI panel, 48 h
Structure (SMILES),TGI [µM],GI50 [µM]
Cc1cn(C2CC(N(O)Cc3ccccc3)C(CO)O2)c(=O)[nH]c1=O (centres undefined),> 100,
O=c1[nH]cc(COCC(F)(F)C(F)(F)C(F)(F)C(F)F)c(=O)[nH]1,> 100,
NC1CCCC[C@H]1N.N[C@@H]1CCCC[C@@H]1N.O=C(P(=O)([O-])[O-])P(=O)([O-])[O-].[Pt+4].[Pt+4],> 100,> 100
CC1=C(C(=O)Nc2c(C)cccc2C)C(c2ccccc2Cl)C(C(=O)Nc2c(C)cccc2C)=C(C)N1,> 100,
N#CC(NNC(=O)Cc1ccccc1)c1ccccc1O (centres undefined),> 100,
COc1c(C)c2c(c(C)c1Cl)Oc1c(C=O)c(O)c(Cl)c(C)c1C(=O)O2,> 100,

# System: U251 CNS
# Assay: inhibition of tumour cell growth, NCI panel, 48 h
Structure (SMILES),TGI [µM],GI50 [µM]
Cc1cn(C2CC(N(O)Cc3ccccc3)C(CO)O2)c(=O)[nH]c1=O (centres undefined),> 100,
O=c1[nH]cc(COCC(F)(F)C(F)(F)C(F)(F)C(F)F)c(=O)[nH]1,> 100,
NC1CCCC[C@H]1N.N[C@@H]1CCCC[C@@H]1N.O=C(P(=O)([O-])[O-])P(=O)([O-])[O-].[Pt+4].[Pt+4],> 100,> 100
CC1=C(C(=O)Nc2c(C)cccc2C)C(c2ccccc2Cl)C(C(=O)Nc2c(C)cccc2C)=C(C)N1,> 100,
N#CC(NNC(=O)Cc1ccccc1)c1ccccc1O (centres undefined),> 92,
COc1c(C)c2c(c(C)c1Cl)Oc1c(C=O)c(O)c(Cl)c(C)c1C(=O)O2,44.9,

# System: UACC-257 melanoma
# Assay: inhibition of tumour cell growth, NCI panel, 48 h
Structure (SMILES),TGI [µM],GI50 [µM]
Cc1cn(C2CC(N(O)Cc3ccccc3)C(CO)O2)c(=O)[nH]c1=O (centres undefined),> 100,
O=c1[nH]cc(COCC(F)(F)C(F)(F)C(F)(F)C(F)F)c(=O)[nH]1,> 100,
NC1CCCC[C@H]1N.N[C@@H]1CCCC[C@@H]1N.O=C(P(=O)([O-])[O-])P(=O)([O-])[O-].[Pt+4].[Pt+4],> 100,> 100
CC1=C(C(=O)Nc2c(C)cccc2C)C(c2ccccc2Cl)C(C(=O)Nc2c(C)cccc2C)=C(C)N1,> 100,
N#CC(NNC(=O)Cc1ccccc1)c1ccccc1O (centres undefined),> 94.3,
COc1c(C)c2c(c(C)c1Cl)Oc1c(C=O)c(O)c(Cl)c(C)c1C(=O)O2,> 100,

# System: UACC-62 melanoma
# Assay: inhibition of tumour cell growth, NCI panel, 48 h
Structure (SMILES),TGI [µM],GI50 [µM]
Cc1cn(C2CC(N(O)Cc3ccccc3)C(CO)O2)c(=O)[nH]c1=O (centres undefined),> 100,
O=c1[nH]cc(COCC(F)(F)C(F)(F)C(F)(F)C(F)F)c(=O)[nH]1,> 100,
NC1CCCC[C@H]1N.N[C@@H]1CCCC[C@@H]1N.O=C(P(=O)([O-])[O-])P(=O)([O-])[O-].[Pt+4].[Pt+4],> 100,> 100
N#CC(NNC(=O)Cc1ccccc1)c1ccccc1O (centres undefined),28.8,
COc1c(C)c2c(c(C)c1Cl)Oc1c(C=O)c(O)c(Cl)c(C)c1C(=O)O2,63,

# System: UO-31 renal
# Assay: inhibition of tumour cell growth, NCI panel, 48 h
Structure (SMILES),TGI [µM],GI50 [µM]
Cc1cn(C2CC(N(O)Cc3ccccc3)C(CO)O2)c(=O)[nH]c1=O (centres undefined),> 100,
O=c1[nH]cc(COCC(F)(F)C(F)(F)C(F)(F)C(F)F)c(=O)[nH]1,> 100,
NC1CCCC[C@H]1N.N[C@@H]1CCCC[C@@H]1N.O=C(P(=O)([O-])[O-])P(=O)([O-])[O-].[Pt+4].[Pt+4],> 100,> 100
CC1=C(C(=O)Nc2c(C)cccc2C)C(c2ccccc2Cl)C(C(=O)Nc2c(C)cccc2C)=C(C)N1,> 100,
N#CC(NNC(=O)Cc1ccccc1)c1ccccc1O (centres undefined),25.4,

# System: XF 498 CNS
# Assay: inhibition of tumour cell growth, NCI panel, 48 h
row,Structure (SMILES),TGI [µM]
1,Cc1cn(C2CC(N(O)Cc3ccccc3)C(CO)O2)c(=O)[nH]c1=O (centres undefined),> 100
2,CC1=C(C(=O)Nc2c(C)cccc2C)C(c2ccccc2Cl)C(C(=O)Nc2c(C)cccc2C)=C(C)N1,> 100
3,COc1c(C)c2c(c(C)c1Cl)Oc1c(C=O)c(O)c(Cl)c(C)c1C(=O)O2,22.7

# Reference: PubChem BioAssay (NCI)
